Source: US20050208496A1, “Methods of testing for bronchial asthma or chronic obstructive pulmonary disease” (Genox Research, Inc., priority 2002, published 2005)

System: mouse counterpart genes
Assay: Mouse GeneChip (MG-U74A to MG-U74C) analysis of lung and trachea of the OVA antigen-exposed bronchial hypersensitivity model, S-Sal group versus S-OVA group
Type: in vivo
Conditions: S-Sal group vs S-OVA group

ovalbumin [OVA antigen, ovalbumin antigen used for sensitization and inhalation to induce bronchial hypersensitivity in mice]
Fold Change, interferon gamma inducible protein 30 (mouse probe 97444_at) (3rd, chip A, P/A call A): 1.8
Fold Change, matrix metalloproteinase 7 (mouse probe 92917_at) (3rd, chip A, P/A call A): 1.6
Fold Change, matrix metalloproteinase 7 (mouse probe 162318_r_at) (3rd, chip A, P/A call A): 1.3
Fold Change, met proto-oncogene (mouse probe 100309_at) (3rd, chip A, P/A call A): 1.9
Fold Change, phosphotidylinositol transfer protein, beta (mouse probe 102697_at) (3rd, chip A, P/A call A): 0.5
Fold Change, A kinase anchor protein 2 (mouse probe 101435_at) (3rd, chip A, P/A call P): 1
Fold Change, DNA segment. Chr 16. ERATO Doi 269, expressed (mouse probe 97821_at) (3rd, chip A, P/A call P): 1
Fold Change, DNA segment. Chr 16. ERATO Doi 269, expressed (mouse probe 97823_g_at) (3rd, chip A, P/A call P): 1.1
Fold Change, a disintegrin and metalloprotease domain 8 (mouse probe 103024_at) (3rd, chip A, P/A call P): 4.6
Fold Change, arachidonate 15-lipoxygenase (mouse probe 98758_at) (3rd, chip A, P/A call P): 8
Fold Change, cholesterol 25-hydroxylase (mouse probe 104509_at) (3rd, chip A, P/A call P): 1.9
Fold Change, claudin 4 (mouse probe 101410_at) (3rd, chip A, P/A call P): 1
Fold Change, decay accelerating factor 1 (mouse probe 103617_at) (3rd, chip A, P/A call P): 1.3
Fold Change, interferon-stimulated protein (20 kDa) (mouse probe 103432_at) (3rd, chip A, P/A call P): 1
Fold Change, interleukin 1 receptor-like 1 (mouse probe 98500_at) (3rd, chip A, P/A call P): 2.4
Fold Change, low density lipoprotein receptor-related protein associated protein 1 (mouse probe 100086_at) (3rd, chip A, P/A call P): 0.833
Fold Change, low density lipoprotein receptor-related protein associated protein 1 (mouse probe 161988_f_at) (3rd, chip A, P/A call P): 1.1
Fold Change, membrane-associated protein 17 (mouse probe 96935_at) (3rd, chip A, P/A call P): 1.1
Fold Change, polycystic kidney disease 2 (mouse probe 100951_at) (3rd, chip A, P/A call P): 0.667
Fold Change, histocompatibility 2, Q region locus 7 (mouse probe 98438_f_at) (3rd, chip A, P/A call P, counterpart of human probe 37420_i_at): 1.2
Fold Change, histocompatibility 2, Q region locus 7 (mouse probe 98438_f_at) (3rd, chip A, P/A call P, counterpart of human probe 37421_f_at): 1.2
Fold Change, A kinase (PRKA) anchor protein 10 (mouse probe 163162_at) (3rd, chip B, P/A call A): 0.526
Fold Change, ESTs Putative Ortholog of ISG-54K gene (mouse probe 164273_at) (3rd, chip B, P/A call A): 1.5
Fold Change, ESTs, Highly similar to AF116721 8 PRO0907 [H. sapiens] (mouse probe 114151_at) (3rd, chip B, P/A call A): 1.4
Fold Change, decay accelerating factor 1 (mouse probe 164905_r_at) (3rd, chip B, P/A call A): 1.1
Fold Change, interferon gamma inducible protein 30 (mouse probe 164423_at) (3rd, chip B, P/A call A): 4.1
Fold Change, secreted end transmembrane 1 (mouse probe 115133_at) (3rd, chip B, P/A call A): 0.625
Fold Change, viral hemorrhagic septicemia virus(VHSV) induced gene 1 (mouse probe 109385_at) (3rd, chip B, P/A call A): 0.286
Fold Change, decay accelerating factor 1 (mouse probe 107626_at) (3rd, chip B, P/A call P): 1.9
Fold Change, deleted in bladder cancer chromosome region candidate 1 (human) Putative Ortholog (mouse probe 166806_at) (3rd, chip C, P/A call P): 1
Fold Change, interferon-induced protein with tetratricopeptide repeats 1 (mouse probe 168299_f_at) (3rd, chip C, P/A call P): 1.2
Fold Change, 2′-5′ oligoadenylate synthetase 1A (mouse Probe ID 102717_at) (chip A, 1st): 1.6
Fold Change, DnaJ (Hsp40) homolog, subfamily A, member 1 (mouse Probe ID 97261_at) (chip A, 1st): 0.476
Fold Change, SAM domain and HD domain, 1 (mouse Probe ID 103080_at) (chip A, 1st): 1.3
Fold Change, cadherin 6 (mouse Probe ID 101730_at) (chip A, 1st): 0.833
Fold Change, cyclin D3 (mouse Probe ID 160545_at) (chip A, 1st): 0.625
Fold Change, growth arrest and DNA-damage-inducible 45 gamma (mouse Probe ID 101979_at) (chip A, 1st): 2.3
Fold Change, heparan sulfate (glucosamine) 3-)-sulfotransferase 1 (mouse Probe ID 102410_at) (chip A, 1st): 1.4
Fold Change, hydroxysteroid (17-beta) dehydrogenase 2 (mouse Probe ID 101891_at) (chip A, 1st): 1.8
Fold Change, intercellular adhesion molecule (mouse Probe ID 96752_at) (chip A, 1st): 1.3
Fold Change, intercellular adhesion molecule (mouse Probe ID 1011414_at) (chip A, 1st): 1
Fold Change, interferon-induced protein with tetratricopeptide repeats 1 (mouse Probe ID 100981_at) (chip A, 1st): 1.8
Fold Change, interferon-stimulated protein (15 kDa) (mouse Probe ID 98822_at) (chip A, 1st): 4.3
Fold Change, interleukin 13 receptor, alpha 2 (mouse Probe ID 95344_at) (chip A, 1st): 1.4
Fold Change, nitric oxide synthase 2, inducible, macrophage (mouse Probe ID 104420_at) (chip A, 1st): 2.3
Fold Change, osteoblast specific factor 2 (fasciclin I-like) (mouse Probe ID 92593_at) (chip A, 1st): 1.2
Fold Change, proteosome (prosome, macropain) subunit, beta type 9 (mouse Probe ID 93085_at) (chip A, 1st): 2.1
Fold Change, sialyltransferase 1 (beta-galactoside alpha-2,6-sialyltransferase) (mouse Probe ID 94431_at) (chip A, 1st): 0.385
Fold Change, small inducible cytokine B subfamily (Cys-X-Cys), member 10 (mouse Probe ID 93858_at) (chip A, 1st): 1.3
Fold Change, thioredoxin reductase 1 (mouse Probe ID 99985_at) (chip A, 1st): 1.2
Fold Change, thioredoxin reductase 1 (mouse Probe ID 161043_r_at) (chip A, 1st): 1.4
Fold Change, thrombospondin 1 (mouse Probe ID 160469_at) (chip A, 1st): 1.1
Fold Change, transglutaminase 2, C polypeptide (mouse Probe ID 93352_at) (chip A, 1st): 1
Fold Change, 2′-5′ oligoadenylate synthetase 1A (mouse Probe ID 102717_at) (chip A, 2nd): 1.7
Fold Change, SAM domain and HD domain, 1 (mouse Probe ID 103080_at) (chip A, 2nd): 1.3
Fold Change, cadherin 6 (mouse Probe ID 101730_at) (chip A, 2nd): 1.1
Fold Change, cyclin D3 (mouse Probe ID 160545_at) (chip A, 2nd): 1.1
Fold Change, fructose bisphosphatase 1 (mouse Probe ID 96918_at) (chip A, 2nd): 2.3
Fold Change, growth arrest and DNA-damage-inducible 45 gamma (mouse Probe ID 101979_at) (chip A, 2nd): 5.4
Fold Change, heparan sulfate (glucosamine) 3-)-sulfotransferase 1 (mouse Probe ID 102410_at) (chip A, 2nd): 0.4
Fold Change, hydroxysteroid (17-beta) dehydrogenase 2 (mouse Probe ID 101891_at) (chip A, 2nd): 0.667
Fold Change, intercellular adhesion molecule (mouse Probe ID 96752_at) (chip A, 2nd): 1.2
Fold Change, intercellular adhesion molecule (mouse Probe ID 1011414_at) (chip A, 2nd): 0.357
Fold Change, interferon-induced protein with tetratricopeptide repeats 1 (mouse Probe ID 100981_at) (chip A, 2nd): 1.9
Fold Change, interferon-stimulated protein (15 kDa) (mouse Probe ID 98822_at) (chip A, 2nd): 4.2
Fold Change, interleukin 13 receptor, alpha 2 (mouse Probe ID 95344_at) (chip A, 2nd): 1.5
Fold Change, nitric oxide synthase 2, inducible, macrophage (mouse Probe ID 104420_at) (chip A, 2nd): 1.1
Fold Change, proteosome (prosome, macropain) subunit, beta type 9 (mouse Probe ID 93085_at) (chip A, 2nd): 1.6
Fold Change, sialyltransferase 1 (beta-galactoside alpha-2,6-sialyltransferase) (mouse Probe ID 94431_at) (chip A, 2nd): 1.3
Fold Change, small inducible cytokine B subfamily (Cys-X-Cys), member 10 (mouse Probe ID 93858_at) (chip A, 2nd): 1.7
Fold Change, thioredoxin reductase 1 (mouse Probe ID 161043_r_at) (chip A, 2nd): 1.8
Fold Change, thioredoxin reductase 1 (mouse Probe ID 161284_r_at) (chip A, 2nd): 1.3
Fold Change, thrombospondin 1 (mouse Probe ID 160469_at) (chip A, 2nd): 1.7
Fold Change, transforming growth factor, beta 2 (mouse Probe ID 93300_at) (chip A, 2nd): 0.833
Fold Change, transglutaminase 2, C polypeptide (mouse Probe ID 93352_at) (chip A, 2nd): 1.3
Fold Change, 2′-5′ oligoadenylate synthetase 1A (mouse Probe ID 102717_at) (chip A, 3rd): 2.2
Fold Change, DnaJ (Hsp40) homolog, subfamily A, member 1 (mouse Probe ID 97261_at) (chip A, 3rd): 0.833
Fold Change, cyclin D3 (mouse Probe ID 160545_at) (chip A, 3rd): 0.833
Fold Change, fructose bisphosphatase 1 (mouse Probe ID 96918_at) (chip A, 3rd): 1.7
Fold Change, growth arrest and DNA-damage-inducible 45 gamma (mouse Probe ID 101979_at) (chip A, 3rd): 1.9
Fold Change, heparan sulfate (glucosamine) 3-)-sulfotransferase 1 (mouse Probe ID 102410_at) (chip A, 3rd): 1
Fold Change, intercellular adhesion molecule (mouse Probe ID 1011414_at) (chip A, 3rd): 1
Fold Change, interferon-induced protein with tetratricopeptide repeats 1 (mouse Probe ID 100981_at) (chip A, 3rd): 1.6
Fold Change, interferon-stimulated protein (15 kDa) (mouse Probe ID 98822_at) (chip A, 3rd): 2.2
Fold Change, interleukin 13 receptor, alpha 2 (mouse Probe ID 95344_at) (chip A, 3rd): 1.2
Fold Change, osteoblast specific factor 2 (fasciclin I-like) (mouse Probe ID 92593_at) (chip A, 3rd): 1
Fold Change, proteosome (prosome, macropain) subunit, beta type 9 (mouse Probe ID 93085_at) (chip A, 3rd): 1.1
Fold Change, sialyltransferase 1 (beta-galactoside alpha-2,6-sialyltransferase) (mouse Probe ID 94431_at) (chip A, 3rd): 1.6
Fold Change, small inducible cytokine B subfamily (Cys-X-Cys), member 10 (mouse Probe ID 93858_at) (chip A, 3rd): 2
Fold Change, thioredoxin reductase 1 (mouse Probe ID 99985_at) (chip A, 3rd): 1
Fold Change, thioredoxin reductase 1 (mouse Probe ID 161043_r_at) (chip A, 3rd): 0.588
Fold Change, thrombospondin 1 (mouse Probe ID 160469_at) (chip A, 3rd): 1.5
Fold Change, transforming growth factor, beta 2 (mouse Probe ID 93300_at) (chip A, 3rd): 0.5
Fold Change, transglutaminase 2, C polypeptide (mouse Probe ID 93352_at) (chip A, 3rd): 0.833
Fold Change, RIKEN cDNA 2610017M01 gene (mouse Probe ID 105606_at) (chip B, 1st): 1.5
Fold Change, RIKEN cDNA 2610017M01 gene (mouse Probe ID 163053_at) (chip B, 1st): 1
